Laboratory results from US20080306275A1, “NOVEL HETEROARYL DERIVATIVE” (Danippon Sumitomo Pharma Co., Ltd., priority 2003, published 2008).
Where a name gives a salt, the structure may show the parent alone.

How the values were obtained:
human PPARγ = molecular target: T1, human PPARγ (Homo sapiens, UniProt P37231); experiment: GAL4-PPARγ luciferase reporter assay in COS-1 cells; type: cell-based; settings: relative luciferase activity, vehicle (DMSO) control regarded as 1, 24 hours
T1 construct: human PPARγ (including amino acids residue 204-505); expressed in transfected cells; host or cells: COS-1
T1 sequence (P37231 204-505): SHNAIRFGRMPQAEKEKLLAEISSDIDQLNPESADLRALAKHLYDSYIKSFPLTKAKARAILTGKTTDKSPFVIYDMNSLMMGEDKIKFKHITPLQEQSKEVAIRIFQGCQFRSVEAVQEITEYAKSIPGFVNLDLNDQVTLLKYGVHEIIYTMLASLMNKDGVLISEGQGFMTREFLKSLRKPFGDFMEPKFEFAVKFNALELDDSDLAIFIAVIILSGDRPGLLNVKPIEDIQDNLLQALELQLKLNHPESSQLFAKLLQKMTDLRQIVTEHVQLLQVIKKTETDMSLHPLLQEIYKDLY
Excerpt: (§1) By inserting a gene fragment encoding the ligand binding domain of human PPARα (including amino acid residues 167-468) or a gene fragment encoding the ligand binding domain of human PPARγ (including amino acids residue 204-505) into a multicloning site of expressing vector pM containing DNA binding domain of yeast GAL4 protein (Clonetech), a vector plasmid expressing a fused protein of GAL4 protein DNA binding domain and human PPARα or γ ligand binding domain.
(§2) As a reporter plasmid, pGL3-Basic Vector containing firefly luciferase gene (Promega Corporation) was used wherein Gal4-responsive sequence UAS and rabbit β-globin promoter were inserted.
(§3) For the modification of genetic transformation efficiency, a plasmid containing lacZ gene, pβgal control (Clonetech), was used.
(§4) COS-1 cells were cultured in the phenol red free Dulbecco's Modified Eagles Medium (DMEM) (Gibco) supplemented with 5% activated carbon/dextran stripped fetal bovine serum at 37° C. with 5% carbon dioxide. The COS-1 cells were plated at a concentration of 5×10^4 cells/well into a 24-well plate, and the plate was incubated overnight. The medium was replaced with a fresh medium supplemented without 5% activated carbon/dextran treated fetal bovine serum. Further, the cells were transfected using Lipofectamine plus reagent (Gibco) with plasmid GAL4-PPARα- or γ-expressing plasmid (5 ng), the reporter plasmid (50 ng), pβgal control (350 ng) per well. After incubation for 4 hours, the medium was changed with a fresh medium supplemented with 5% activated carbon/dextran treated fetal bovine serum. Then, the compound of the present invention was added thereto in such an amount that the final concentration thereof is 1 μM or 10 μM. After the cultivation for 24 hours, the cells were lysed with a solution for cell lysis accompanied to the Luciferase Assay System (Promega Corporation). The luciferase activity therein was measured by a luminometer using the reagent for measuring luciferase which was also accompanied to said System. The β-galactosidase activity was measured using a β-galactosidase enzyme assay system (Promega Corporation) to correct the generic transfection efficiency.
(§5) The PPARα- or γ-agonistic activity was expressed as a relative activity where the luciferase activity in the well to which the vehicle (DMSO) was added as control was regarded as 1.

male db/db mice = experiment: Hypoglycemic activity in db/db mice; type: in vivo; settings: 30 mg/kg orally once a day for 2 weeks, blood glucose level on the last day
Protocol: The test compounds as disclosed in Examples were dissolved or suspended in a 0.5% carbomethyl cellulose solution, and orally administered to male db/db mice (7 to 8 weeks old) at a final dose of 30 mg/kg once a day for 2 weeks. On the last day, the blood was taken at the tail vein, and immediately thereafter, perchloric acid was added for removing proteins, and the blood glucose level was measured by Glucose CII Test Wako (Wako Pure Industries, Ltd.).
In addition, the hypoglycemic activity was calculated by the following equation.

human PPARα = molecular target: T2, human PPARα (Homo sapiens, UniProt Q07869); experiment: GAL4-PPARα luciferase reporter assay in COS-1 cells; type: cell-based; settings: relative luciferase activity, vehicle (DMSO) control regarded as 1, 24 hours
T2 construct: human PPARα (including amino acid residues 167-468); expressed in transfected cells; host or cells: COS-1
T2 sequence (Q07869 167-468): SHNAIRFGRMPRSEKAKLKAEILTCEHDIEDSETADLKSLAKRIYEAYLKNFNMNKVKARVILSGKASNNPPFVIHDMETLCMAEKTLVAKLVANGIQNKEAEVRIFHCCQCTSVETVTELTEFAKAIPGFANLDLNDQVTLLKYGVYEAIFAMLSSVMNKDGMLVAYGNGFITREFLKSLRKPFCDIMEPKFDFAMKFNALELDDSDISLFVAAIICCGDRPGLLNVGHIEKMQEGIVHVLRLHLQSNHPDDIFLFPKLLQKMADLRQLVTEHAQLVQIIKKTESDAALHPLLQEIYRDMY
Excerpt: as §1, §2, §3, §4, §5

Compound | PPARγ-agonistic activity (10 μM) (human PPARγ) | Hypoglycemic Activity (%) (male db/db mice) | PPARα-agonistic activity (10 μM) (human PPARα)
Cc1ccc(C(=O)c2cccn2C/C=C/c2cccc(COC(C)(C)C(=O)O)c2)cc1 [Example 1B, 2-Methyl-2-[(3-{(1E)-3-[2-(4-methylbenzoyl)-1H-pyrrol-1-yl]prop-1-en-1-yl}-benzyl)oxy]propionic acid] | 4.7 | 21.2 | 8.0
Cc1ccc(C(=O)c2cccn2C/C=C/c2cccc(COC(C(=O)O)c3ccccc3)c2)cc1 (stereo not shown) [Example 2B, [(3-{(1E)-3-[2-(4-Methylbenzoyl)-1H-pyrrol-1-yl]prop-1-en-1-yl}benzyl)oxy]-(phenyl)acetic acid] | 5.6 |  | 7.8
Cc1ccc(C(=O)c2cccn2C/C=C/c2ccc(COC(C)(C)C(=O)O)cc2)cc1 [Example 3B, 2-Methyl-2-[(4-{(1E)-3-[2-(4-methylbenzoyl)-1H-pyrrol-1-yl]prop-1-en-1-yl}-benzyl)oxy]propionic acid] | 7.5 | 17.8 | 12.6
Cc1ccc(C(=O)c2cccn2C/C=C/c2cccc(COCC(=O)O)c2)cc1 [Example 4, [(3-{(1E)-3-[2-(4-Methylbenzoyl)-1H-pyrrol-1-yl]prop-1-en-1-yl}benzyl)oxy]acetic acid] | 3.4 |  | 12.6
Cc1ccc(C(=O)c2cccn2C/C=C/c2cccc(CO[C@H](C)C(=O)O)c2)cc1 [Example 5B, (2R)-2-[(3-{(1E)-3-[2-(4-Methylbenzoyl)-1H-pyrrol-1-yl]prop-1-en-1-yl}benzyl)-oxy]propionic acid] | 5.4 |  | 11.6
Cc1ccc(C(=O)c2cccn2C/C=C/c2ccc(CO[C@H](C)C(=O)O)cc2)cc1 [Example 6B, (2R)-2-[(4-{(1E)-3-[2-(4-Methylbenzoyl)-1H-pyrrol-1-yl]prop-1-ene-1-yl}benzyl)-oxy]propionic acid] | 5.5 | 63.3 | 10.1
Cc1ccc(C(=O)c2cccn2C/C=C/c2cccc(CO[C@@H](C)C(=O)O)c2)cc1 [Example 7B, (2S)-2-[(3-{(1E)-3-[2-(4-Methylbenzoyl)-1H-pyrrol-1-yl]prop-1-en-1-yl}benzyl)-oxy]propionic acid] | 2.9 |  | 10.8
CCC(OCc1cccc(/C=C/Cn2cccc2C(=O)c2ccc(C)cc2)c1)C(=O)O (stereo not shown) [Example 9B, 2-[(3-{(1E)-3-[2-(4-methylbenzoyl)-1H-pyrrol-1-yl]prop-1-en-1-yl}benzyl)oxy]-butyric acid] | 5.3 |  | 8.6
Cc1ccc(C(=O)c2cccn2C/C=C/c2ccc(CO[C@@H](C)C(=O)O)cc2)cc1 [Example 11, (2S)-2-[(4-{(1E)-3-[2-(4-Methylbenzoyl)-1H-pyrrol-1-yl]prop-1-en-1-yl}benzyl)-oxy]propionic acid 1,3-dihydroxy-2-(hydroxymethyl)propan-2-aminium salt] |  | 64.4 | 
Cc1ccc(C(=O)c2nccn2C/C=C/c2ccc(CO[C@H](C)C(=O)O)cc2)cc1 [Example 27] |  | 51.0 | 
COc1ccc(C(=O)c2nccn2C/C=C/c2ccc(CO[C@H](C)C(=O)O)cc2)cc1 [Example 29] |  | 43.0 | 
Cc1ccc(C(=O)c2nc3ccccc3n2C/C=C/c2ccc(COC(C)(C)C(=O)O)cc2)cc1 [Example 38] |  | 18.2 | 
Cc1ccc(C(=O)c2cccn2C/C=C/c2ccc(COCc3nnn[nH]3)cc2)cc1 [compound 51] | 8.9 |  | 17.7
